Patent US8865734B2 (priority 2010, dated 2014)
Values after ≈ are worked out from the molar mass of the structure shown.

Tests used:
[1] = system: in vitro grown Mycobacteria (M. tuberculosis); assay: QUM: Quantification of in vitro grown Mycobacteria (in vitro growth fluorescence assay); type: cell-based; settings: MIC, 80% bacterial growth inhibition, in vitro growth; for MIC: Mycobacterium tuberculosis, read-out: QUM
Description: (§1) A 120,000 small molecule compound library was screened using a validated phenotypic cell-based assay (WO2010003533A2). Active compounds from the primary screen were confirmed via dose response in the intracellular (QIM) assay and an in vitro (QUM) assay, wherein the abbreviation “QIM” stands for Quantification of Intracellular Mycobacteria and the abbreviation “QUM” stands for Quantification of in vitro grown Mycobacteria. […] The MIC is the minimum concentration of compound required to obtain 80% bacterial growth inhibition.
(§2) The imidazopyridine compounds (scaffolds Ia and Ib; see Table 1) underwent derivatization according to the methods outlined below (Schemes 1-13). Resulting derivatives were examined for inhibitory activity (MIC) using the assays described above (Example 1) and the results are summarized in Table 1.

[2] = system: M. tuberculosis inside the host macrophage; assay: QIM: Quantification of Intracellular Mycobacteria (intracellular growth assay, phenotypic cell-based); settings: MIC, 80% bacterial growth inhibition, intracellular growth; for MIC: Mycobacterium tuberculosis, read-out: QIM
Description: Accordingly, a phenotypic cell-based assay, suitable for high throughput screening, which allows for the search of compounds that would prevent M. tuberculosis multiplication inside the host macrophage was utilized (WO2010003533A2), overcoming many of the numerous and burdensome steps involved in previous methodologies (Arain et al., 1996).
as §1, §2

Compound | MIC [1] [µM] | MIC [2] [µM] | QUM (μM) [1] | QIM (μM) [2]
Cc1nc2ccccn2c1C(=O)NCCOc1ccccc1 [Compound 23, 2-Methyl-N-(2-phenoxyethyl)imidazo[1,2-a]pyridine-3-carboxamide] | 1 to 20 (≈ 0.295 to 5.91 µg/mL) | 1 to 20 (≈ 0.295 to 5.91 µg/mL) | – | –
CCc1nc2ccc(Cl)cn2c1C(=O)NCc1ccc(N2CCC(Oc3ccc(C(F)(F)F)cc3)CC2)cc1 [Compound 164, 6-Chloro-2-ethyl-N-(4-(4-(4-(trifluoromethyl)phenoxy)piperidin-1-yl)benzyl) imidazo[1,2-a]pyridine-3-carboxamide] | < 1 | < 1 | – | –
CCc1nc2cc(Cl)ccn2c1C(=O)NCc1ccc(OC(F)(F)F)cc1 [Compound 102, 7-Chloro-2-ethyl-N-(4-(trifluoromethoxy)benzyl)imidazo[1,2-a]pyridine-3-carboxamide] | < 1 | 1 to 20 (≈ 0.398 to 7.96 µg/mL) | – | –
CCc1nc2cc(Cl)ccn2c1C(=O)NCc1ccc(-c2ccc[nH]2)cc1 [Compound 136, N-(4-(1H-Pyrrol-2-yl)benzyl)-7-chloro-2-ethylimidazo[1,2-a]pyridine-3-carboxamide] | 1 to 20 (≈ 0.379 to 7.58 µg/mL) | 1 to 20 (≈ 0.379 to 7.58 µg/mL) | – | –
CCc1nc2cc(Cl)ccn2c1C(=O)NCc1ccc(-c2ccccc2C(F)(F)F)cc1 [Compound 124] | 1 to 20 (≈ 0.458 to 9.16 µg/mL) | < 1 | – | –
Cc1nc2ccccn2c1C(=O)NCc1ccc(F)cc1 [Compound 9, N-(4-Fluorobenzyl)-2-methylimidazo[1,2-a]pyridine-3-carboxamide] | > 20 | > 20 | – | –
CCc1nc2cc(Cl)ccn2c1C(=O)NCc1ccc(-c2ccccc2)cc1 [Compound 93] | < 1 | < 1 | – | –
CCc1nc2ccc(Cl)cn2c1C(=O)NCc1ccc(N2CCN(c3ccc(F)cc3)CC2)cc1 [Compound 113, 6-Chloro-2-ethyl-N-(4-(4-(4-fluorophenyl)piperazin-1-yl)benzyl)imidazo[1,2-a]pyridine-3-carboxamide] | < 1 | < 1 | – | –
CCc1nc2ccc(Cl)cn2c1C(=O)NCc1ccc(N2CCC(C)CC2)cc1 [Compound 214, 6-Chloro-2-ethyl-N-(4-(4-methylpiperidin-1-yl)benzyl)imidazo[1,2-a]pyridine-3-carboxamide] | < 1 | < 1 | – | –
CCc1nc2ccc(C(F)(F)F)cn2c1C(=O)NCc1ccc(N2CCC(Oc3ccc(OC(F)(F)F)cc3)CC2)cc1 [Compound 168, 2-Ethyl-N-(4-(4-(4-(trifluoromethoxy)phenoxy)piperidin-1-yl)benzyl)-6-(trifluoromethyl)imidazo[1,2-a]pyridine-3-carboxamide] | 1 to 20 (≈ 0.607 to 12.1 µg/mL) | 1 to 20 (≈ 0.607 to 12.1 µg/mL) | – | –
Cc1nc2ccccn2c1C(=O)NCc1ccncc1 [Compound 14, 2-Methyl-N-(pyridin-4-ylmethyl)imidazo[1,2-a]pyridine-3-carboxamide] | > 20 | > 20 | – | –
CCc1nc2cc(Cl)ccn2c1C(=O)NCc1ccc(N2CCN(C(C)C)CC2)cc1 [Compound 110, 7-Chloro-2-ethyl-N-(4-(4-isopropylpiperazin-1-yl)benzyl)imidazo[1,2-a]pyridine-3-carboxamide] | 1 to 20 (≈ 0.44 to 8.8 µg/mL) | < 1 | – | –
Cc1nc2ccc(C#N)cn2c1C(=O)NCc1ccccc1 [Compound 36, N-Benzyl-6-cyano-2-methylimidazo[1,2-a]pyridine-3-carboxamide] | > 20 | > 20 | – | –
Cc1nc2ccccn2c1C(=O)NCCOCc1ccccc1 [Compound 24, N-(2-(Benzyloxy)ethyl)-2-methylimidazo[1,2-a]pyridine-3-carboxamide] | > 20 | > 20 | – | –
CCc1nc2cc(Cl)ccn2c1C(=O)NCc1ccc(N2CCCCC2)cc1 [Compound 90, 7-Chloro-2-ethyl-N-(4-(piperidin-1-yl)benzyl)imidazo[1,2-a]pyridine-3-carboxamide] | < 1 | < 1 | – | –
CCc1nc2ccc(Cl)cn2c1C(=O)NCc1ccc(N2CCC(Oc3ccc(F)cc3)CC2)cc1 [Compound 166, 6-Chloro-2-ethyl-N-(4-(4-(4-fluorophenoxy)piperidin-1-yl)benzyl)imidazo[1,2-a]pyridine-3-carboxamide] | < 1 | < 1 | – | –
CCc1nc2cc(Cl)ccn2c1C(=O)NCc1ccn(-c2ccc(OC(F)(F)F)cc2)n1 [Compound 232, 7-Chloro-2-ethyl-N-((1-(4-(trifluoromethoxy)phenyl)-1H-pyrazol-3-yl)methyl) imidazo[1,2-a]pyridine-3-carboxamide] | – | – | ++ (++ indicates between 1-20 uM) | ++ (++ indicates between 1-20 uM)
Cc1nc2ccccn2c1C(=O)Nc1ccc(OCc2ccccc2)cc1 [Compound 7, N-(4-(Benzyloxy)phenyl)-2-methylimidazo[1,2-a]pyridine-3-carboxamide] | > 20 | > 20 | – | –
Cc1nc2c(F)cccn2c1C(=O)NCc1ccccc1 [Compound 39, N-Benzyl-8-fluoro-2-methylimidazo[1,2-a]pyridine-3-carboxamide] | 1 to 20 (≈ 0.283 to 5.67 µg/mL) | 1 to 20 (≈ 0.283 to 5.67 µg/mL) | – | –

Compound | MIC [1] [µM] | MIC [2] [µM] | QUM (μM) [1] | QIM (μM) [2]
CCc1nc2ccccn2c1C(=O)NCc1ccc(C(C)(C)C)cc1 [Compound 55, N-(4-tert-Butylbenzyl)-2-ethylimidazo[1,2-a]pyridine-3-carboxamide] | < 1 | < 1 | – | –
COc1ccc(CNC(=O)c2c(C)nc3ccccn23)cc1 [Compound 12, N-(4-Methoxybenzyl)-2-methylimidazo[1,2-a]pyridine-3-carboxamide] | 1 to 20 (≈ 0.295 to 5.91 µg/mL) | 1 to 20 (≈ 0.295 to 5.91 µg/mL) | – | –
Cc1nc2ccccn2c1C(=O)NCC1CCN(C(=O)OC(C)(C)C)CC1 [Compound 19, tert-Butyl 4-((2-methylimidazo[1,2-a]pyridine-3-carboxamido)methyl)piperidine-1-carboxylate] | > 20 | > 20 | – | –
CCc1nc2ccc(Cl)cn2c1C(=O)NCc1ccc2[nH]c(-c3ccc(OC(F)(F)F)cc3)nc2c1 [Compound 204, 6-Chloro-2-ethyl-N-((2-(4-(trifluoromethoxy)phenyl)-1H-benzo[d]imidazol-5-yl)methyl) imidazo[1,2-a]pyridine-3-carboxamide] | > 20 | > 20 | – | –
CCc1nc2cc(Cl)ccn2c1C(=O)NCc1ccc(Br)cc1 [Compound 101, N-(4-Bromobenzyl)-7-chloro-2-ethylimidazo[1,2-a]pyridine-3-carboxamide] | 1 to 20 (≈ 0.393 to 7.85 µg/mL) | < 1 | – | –
Cc1nc2cc(-c3ccccc3)ccn2c1C(=O)NCc1ccccc1 [Compound 37, N-Benzyl-2-methyl-7-phenylimidazo[1,2-a]pyridine-3-carboxamide] | > 20 | > 20 | – | –
CCc1nc2ccc(Cl)cn2c1C(=O)NCc1ccc(N2CCOCC2)cc1 [Compound 74] | < 1 | < 1 | – | –
CCc1nc2ccc(Cl)cn2c1C(=O)NCc1ccc(-c2ccccc2C#N)cc1 [Compound 125, 6-Chloro-N-((2′-cyanobiphenyl-4-yl)methyl)-2-ethylimidazo[1,2-a]pyridine-3-carboxamide] | < 1 | 1 to 20 (≈ 0.415 to 8.3 µg/mL) | – | –
CCc1nc2ccc(Cl)cn2c1C(=O)NCc1ccc(N2CCC(Oc3ccc(OC(F)(F)F)cc3)CC2)cc1 [Compound 139, 6-Chloro-2-ethyl-N-(4-(4-(4-(trifluoromethoxy)phenoxy)piperidin-1-yl)benzyl)imidazo-[1,2-a]pyridine-3-carboxamide] | < 1 | < 1 | – | –
Cc1nc2ccc(Cl)cn2c1C(=O)NCc1ccc(OC(F)(F)F)cc1 [Compound 154, 6-Chloro-2-methyl-N-(4-(trifluoromethoxy)benzyl)imidazo[1,2-a]pyridine-3-carboxamide] | < 1 | 1 to 20 (≈ 0.384 to 7.68 µg/mL) | – | –
Cc1nc2ccccn2c1C(=O)Nc1ccc(Oc2ccccc2)cc1 [Compound 6, 2-Methyl-N-(4-phenoxyphenyl)imidazo[1,2-a]pyridine-3-carboxamide] | > 20 | > 20 | – | –
Cc1nc2ccccn2c1C(=O)NCC1CCNCC1 [Compound 20, 2-Methyl-N-(piperidin-4-ylmethyl)imidazo[1,2-a]pyridine-3-carboxamide] | > 20 | > 20 | – | –
Cc1nc2ccccn2c1C(=O)NCc1ccc(Oc2ccccc2)cc1 [Compound 15, 2-Methyl-N-(4-phenoxybenzyl)imidazo[1,2-a]pyridine-3-carboxamide] | 1 to 20 (≈ 0.357 to 7.15 µg/mL) | < 1 | – | –
CCCc1nc2ccccn2c1C(=O)NCc1ccccc1 [Compound 48, N-Benzyl-2-propylimidazo[1,2-a]pyridine-3-carboxamide] | 1 to 20 (≈ 0.293 to 5.87 µg/mL) | > 20 | – | –
Cc1nc2ccc(-c3ccccc3)cn2c1C(=O)NCc1ccccc1 [Compound 38, N-Benzyl-2-methyl-6-phenylimidazo[1,2-a]pyridine-3-carboxamide] | > 20 | > 20 | – | –
CCc1nc2ccc(Cl)cn2c1C(=O)NCc1ccc2oc(-c3ccc(OC(F)(F)F)cc3)nc2c1 [Compound 207, 6-Chloro-2-ethyl-N-((2-(4-(trifluoromethoxy)phenyl)benzo[d]oxazol-5-yl)methyl)imidazo[1,2-a]pyridine-3-carboxamide] | < 1 | < 1 | – | –
Cc1nc2ccccn2c1C(=O)NCCc1ccccc1 [Compound 21, 2-Methyl-N-phenethylimidazo[1,2-a]pyridine-3-carboxamide] | > 20 | > 20 | – | –
Cc1ccc2nc(C)c(C(=O)NCc3ccccc3)n2c1 [Compound 32, N-Benzyl-2,6-dimethylimidazo[1,2-a]pyridine-3-carboxamide] | < 1 | < 1 | – | –
